Measurements published in ChEMBL document CHEMBL1909294, “Translating clinical findings into knowledge in drug safety evaluation--drug induced liver injury prediction system (DILIps)” (PLoS Comput Biol, 2011).

Experiments:
[1] = tested on: Hepatotoxicity;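 on HepSE bilirubinemia: bilirubinemia hepatic side effect score drawn from the DILIps training data, a prediction system for drug-induced liver injury; call rule not given here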;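 on HepSE cholecystitis: Cholecystitis-related hepatic side effect score drawn from the DILIps (drug-induced liver injury prediction) training data set; call rule not given here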;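 on HepSE cholelithiasis: hepatic side effect score for cholelithiasis, drawn from the DILIps training data for predicting drug-induced liver injury; call rule not given here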;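 on HepSE cirrhosis: cirrhosis hepatic side effect score taken from the DILIps (drug-induced liver injury prediction) training set; call rule not given here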;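 on HepSE elevated liver function tests: hepatic side effect score for raised liver function tests, as recorded in the DILIps training set used for predicting drug-induced liver injury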; on HepSE hepatic failure: call rule not given here;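 on HepSE hepatomegaly: hepatic side effect score for hepatomegaly, taken from the training set of the DILIps drug-induced liver injury prediction system; call rule not given here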
[2] = tested on: Hepatotoxicity; remark: listed apart in the source;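 on HepSE bilirubinemia: bilirubinemia hepatic side effect score drawn from the DILIps training data, a prediction system for drug-induced liver injury; call rule not given here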;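 on HepSE cholecystitis: Cholecystitis-related hepatic side effect score drawn from the DILIps (drug-induced liver injury prediction) training data set; call rule not given here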;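 on HepSE cholelithiasis: hepatic side effect score for cholelithiasis, drawn from the DILIps training data for predicting drug-induced liver injury; call rule not given here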;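 on HepSE cirrhosis: cirrhosis hepatic side effect score taken from the DILIps (drug-induced liver injury prediction) training set; call rule not given here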;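 on HepSE elevated liver function tests: hepatic side effect score for raised liver function tests, as recorded in the DILIps training set used for predicting drug-induced liver injury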; on HepSE hepatic failure: call rule not given here;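 on HepSE hepatomegaly: hepatic side effect score for hepatomegaly, taken from the training set of the DILIps drug-induced liver injury prediction system; call rule not given here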
[3] = tested on: Hepatotoxicity; remark: listed apart in the source;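 on HepSE bilirubinemia: bilirubinemia hepatic side effect score drawn from the DILIps training data, a prediction system for drug-induced liver injury; call rule not given here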;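 on HepSE cholecystitis: Cholecystitis-related hepatic side effect score drawn from the DILIps (drug-induced liver injury prediction) training data set; call rule not given here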;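 on HepSE cholelithiasis: hepatic side effect score for cholelithiasis, drawn from the DILIps training data for predicting drug-induced liver injury; call rule not given here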;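 on HepSE cirrhosis: cirrhosis hepatic side effect score taken from the DILIps (drug-induced liver injury prediction) training set; call rule not given here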;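 on HepSE elevated liver function tests: hepatic side effect score for raised liver function tests, as recorded in the DILIps training set used for predicting drug-induced liver injury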; on HepSE hepatic failure: call rule not given here
[4] = tested on: Hepatotoxicity; remark: listed apart in the source;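 on HepSE bilirubinemia: bilirubinemia hepatic side effect score drawn from the DILIps training data, a prediction system for drug-induced liver injury; call rule not given here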;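 on HepSE cholecystitis: Cholecystitis-related hepatic side effect score drawn from the DILIps (drug-induced liver injury prediction) training data set; call rule not given here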;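 on HepSE cholelithiasis: hepatic side effect score for cholelithiasis, drawn from the DILIps training data for predicting drug-induced liver injury; call rule not given here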;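 on HepSE cirrhosis: cirrhosis hepatic side effect score taken from the DILIps (drug-induced liver injury prediction) training set; call rule not given here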;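 on HepSE elevated liver function tests: hepatic side effect score for raised liver function tests, as recorded in the DILIps training set used for predicting drug-induced liver injury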; on HepSE hepatic failure: call rule not given here
[5] = tested on: Hepatotoxicity; remark: listed apart in the source; on HepSE hepatic failure: call rule not given here
[6] = tested on: Hepatotoxicity; remark: listed apart in the source; on HepSE hepatic failure: call rule not given here
[7] = tested on: Hepatotoxicity; remark: listed apart in the source
[8] = tested on: Hepatotoxicity; remark: listed apart in the source
[9] = tested on: Hepatotoxicity; remark: listed apart in the source
[10] = tested on: Hepatotoxicity; remark: listed apart in the source
[11] = tested on: Hepatotoxicity; remark: listed apart in the source
[12] = tested on: Hepatotoxicity; remark: listed apart in the source
[13] = tested on: Hepatotoxicity; remark: listed apart in the source
[14] = tested on: Hepatotoxicity; remark: listed apart in the source

SMILES | HepSE_bilirubinemia [1] | HepSE_cholecystitis [2] | HepSE_cholelithiasis [3] | HepSE_cirrhosis [4] | HepSE_elevated liver function tests ([5]; Liver) | HepSE_hepatic failure [6] | HepSE_hepatic necrosis [7] | HepSE_hepatitis [8] | HepSE_hepatomegaly [9] | HepSE_jaundice [10] | HepSE_liver disease [11] | HepSE_liver fatty [12] | HepSE_liver function tests abnormal ([13]; Liver) | HepSE_Combined Scores [14] | HepSE_elevated liver function tests [5] | HepSE_liver function tests abnormal [13] | further results
Clc1ccc(CO/N=C(\Cn2ccnc2)c2ccc(Cl)cc2Cl)c(Cl)c1 [OXICONAZOLE] | 0 | 0 | 0 | 0 | 0 | 0 | 0 | 0 | 0 | 0 | 0 | 0 | 0 | 0 |  |  | 
CC1(C)O[C@@H]2C[C@H]3[C@@H]4C[C@H](F)C5=CC(=O)C=C[C@]5(C)[C@@]4(F)[C@@H](O)C[C@]3(C)[C@]2(C(=O)CO)O1 [FLUOCINOLONE ACETONIDE] | 0 | 0 | 0 | 0 |  | 0 | 0 | 0 | 0 | 0 | 0 | 0 |  | 0 | 0 | 0 | 
O=C1c2cccc3c2[C@H](CCC3)CN1[C@@H]1CN2CCC1CC2 [PALONOSETRON] | 0 | 0 | 0 | 0 |  | 0 | 0 | 0 | 0 | 0 | 0 | 0 |  | 0 | 0 | 0 | 
Clc1ccc(C(c2ccccc2Cl)C(Cl)Cl)cc1 (configuration not stated) [MITOTANE] | 0 | 0 | 0 | 0 |  | 0 | 0 | 0 | 0 | 0 | 0 | 0 |  | 0 | 0 | 0 | 
Cc1ccnc2c1NC(=O)c1cccnc1N2C1CC1 [NEVIRAPINE] | 0 | 0 | 0 | 0 |  | 1 | 1 | 1 | 0 | 1 | 1 | 0 |  | 6 | 0 | 1 | 
c1ccc(CC2=NCCN2)cc1 [TOLAZOLINE] | 0 | 0 | 0 | 0 |  | 0 | 0 | 1 | 0 | 0 | 0 | 0 |  | 1 | 0 | 0 | 
NC[C@@H]1O[C@H](O[C@H]2[C@@H](O)[C@H](O[C@@H]3[C@@H](O)[C@H](N)C[C@H](N)[C@H]3O[C@H]3O[C@H](CN)[C@@H](O)[C@H](O)[C@H]3N)O[C@@H]2CO)[C@H](N)[C@@H](O)[C@@H]1O [FRAMYCETIN] |  |  |  |  | 0 |  |  |  |  |  |  |  | 0 |  |  |  | HepSE_bilirubinemia ([1]; Liver): 0; HepSE_cholecystitis ([2]; Liver): 0; HepSE_cholelithiasis ([3]; Liver): 0; HepSE_cirrhosis ([4]; Liver): 0; HepSE_hepatic failure ([6]; Liver): 0; HepSE_hepatic necrosis ([7]; Liver): 0; HepSE_hepatitis ([8]; Liver): 0; HepSE_hepatomegaly ([9]; Liver): 0; HepSE_jaundice ([10]; Liver): 0; HepSE_liver disease ([11]; Liver): 0; HepSE_liver fatty ([12]; Liver): 0; HepSE_Combined Scores ([14]; Liver): 0
C[C@@H]1C[C@H]2[C@@H]3C[C@H](F)C4=CC(=O)C=C[C@]4(C)[C@@]3(F)[C@@H](O)C[C@]2(C)[C@@]1(O)C(=O)CO [FLUMETHASONE] | 0 | 0 | 0 | 0 |  | 0 | 0 | 0 | 0 | 0 | 0 | 0 |  | 0 | 0 | 0 | 
CNCCCC12CCC(c3ccccc31)c1ccccc12 [MAPROTILINE] |  |  |  |  | 0 |  |  |  |  |  |  |  | 0 |  |  |  | HepSE_bilirubinemia ([1]; Liver): 0; HepSE_cholecystitis ([2]; Liver): 0; HepSE_cholelithiasis ([3]; Liver): 0; HepSE_cirrhosis ([4]; Liver): 0; HepSE_hepatic failure ([6]; Liver): 0; HepSE_hepatic necrosis ([7]; Liver): 0; HepSE_hepatitis ([8]; Liver): 0; HepSE_hepatomegaly ([9]; Liver): 0; HepSE_jaundice ([10]; Liver): 1; HepSE_liver disease ([11]; Liver): 0; HepSE_liver fatty ([12]; Liver): 0; HepSE_Combined Scores ([14]; Liver): 1
NCC(=O)O [GLYCINE] |  |  |  |  | 0 |  |  |  |  |  |  |  | 0 |  |  |  | HepSE_bilirubinemia ([1]; Liver): 0; HepSE_cholecystitis ([2]; Liver): 0; HepSE_cholelithiasis ([3]; Liver): 0; HepSE_cirrhosis ([4]; Liver): 0; HepSE_hepatic failure ([6]; Liver): 0; HepSE_hepatic necrosis ([7]; Liver): 0; HepSE_hepatitis ([8]; Liver): 0; HepSE_hepatomegaly ([9]; Liver): 0; HepSE_jaundice ([10]; Liver): 0; HepSE_liver disease ([11]; Liver): 0; HepSE_liver fatty ([12]; Liver): 0; HepSE_Combined Scores ([14]; Liver): 0
CCOC(=O)c1cncn1[C@H](C)c1ccccc1 [ETOMIDATE] | 0 | 0 | 0 | 0 |  | 0 | 0 | 0 | 0 | 0 | 0 | 0 |  | 0 | 0 | 0 | 
CN(C)CCC=C1c2ccccc2COc2ccccc21 [DOXEPIN] | 0 | 0 | 0 | 0 |  | 0 | 0 | 0 | 0 | 1 | 0 | 0 |  | 1 | 0 | 0 | 
CC(C(=O)O)c1ccc(C(=O)c2cccs2)cc1 (configuration not stated) [SUPROFEN] | 0 | 0 | 0 | 0 |  | 0 | 0 | 0 | 0 | 0 | 0 | 0 |  | 0 | 0 | 0 | 
